The first assay concerns the target T1, gastrin receptor (Rattus norvegicus, UniProt P30553).
T1 construct: The stomach was excised and flushed with ca. 1 ml of unbuffered physiological saline solution; from tissue; host or cells: isolated whole stomach of immature rats (ca. 21 days old)
T1 sequence (P30553 1-452): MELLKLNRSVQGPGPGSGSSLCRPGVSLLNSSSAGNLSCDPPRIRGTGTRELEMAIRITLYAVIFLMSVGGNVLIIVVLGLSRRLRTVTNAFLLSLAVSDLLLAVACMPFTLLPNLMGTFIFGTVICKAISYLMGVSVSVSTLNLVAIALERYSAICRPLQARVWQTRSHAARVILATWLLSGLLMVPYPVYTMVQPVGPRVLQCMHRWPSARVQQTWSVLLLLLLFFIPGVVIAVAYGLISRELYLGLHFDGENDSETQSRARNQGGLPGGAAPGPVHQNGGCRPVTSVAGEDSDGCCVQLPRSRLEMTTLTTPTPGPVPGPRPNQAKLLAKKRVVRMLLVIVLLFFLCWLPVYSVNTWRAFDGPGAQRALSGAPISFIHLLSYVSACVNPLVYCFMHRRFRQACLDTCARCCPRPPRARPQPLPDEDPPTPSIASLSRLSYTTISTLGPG
As to the kind of experiment: gastrin antagonist activity in immature rat stomach assay (pentagastrin dose-response, acid secretion). The note with it: isolated immature rat stomach, cumulative pentagastrin dose-response curves. As for the experimental part: The compounds of the examples were also tested for gastrin antagonist activity in an immature rat stomach assay. The procedure was as follows:
The oesophagus of immature rats (33-50 g, ca. 21 days old) was ligated at the level of the cardiac sphincter and the duodenal sphincter was cannulated. The stomach was excised and flushed with ca. 1 ml of unbuffered physiological saline solution. The fundus was punctured and cannulated. A further 4-5 ml of unbuffered solution was flushed through the stomach to ensure the preparation was not leaking. The stomach was lowered into a jacketed organ bath containing 40 ml of buffered solution containing 3×10^−8 M 5-methylfurmethide, maintained at 37° and gassed vigorously with 95% O2/5% CO2. The stomach was continuously perfused at a rate of 1 ml min^−1 with unbuffered solution gassed with 100% O2 with the perfusate passing over an internally referenced pH-electrode fixed 12 cm above the stomach.
After 120 min of stabilisation the drugs were added directly to the serosal solution in the organ bath and after a further 60 min cumulative pentagastrin dose-response curves were started. Changes in acid secretion were monitored and the curves analysed according to Black et al., Br. J. Pharmacol., 1985, 86, 581.
With `O=C(O)c1cccc(NC(=O)c2nc([C@H]3CC4CC[C@H]3C4)[nH]c2COC23CC4CC(CC(C4)C2)C3)c1` [Example 291, endo-3-{[5-(Adamantan-1-yloxymethyl)-2-((1S,2S)-bicyclo[2.2.1]hept-2-yl)-1H-imidazole-4-carbonyl]-amino}-benzoic Acid], the “Gastrin pKb” value was 9.12.

For the compound `O=C(O)Cc1cccc(NC(=O)c2nc(C3CC4CCC3C4)[nH]c2CCC23CC4CC(CC(C4)C2)C3)c1` (racemic) [Example 210, (±)-exo-(3-{[5-(2-Adamantan-1-yl-ethyl)-2-bicyclo[2.2.1]hept-2-yl-1H-imidazole-4-carbonyl]-amino}-phenyl)-acetic Acid], the “Gastrin pKb” value was 6.89.

For `Cc1ccc(NC(=O)c2nc([C@H]3CC4C=C[C@@H]3C4)[nH]c2COC23CC4CC(CC(C4)C2)C3)cc1C(=O)O` [Example 289, endo-5-{[5-(Adamantan-1-yloxymethyl)-2-((1S,2S)-bicyclo[2.2.1]hept-5-en-2-yl)-1H-imidazole-4-carbonyl]-amino}-2-methyl-benzoic Acid], the “Gastrin pKb” value is recorded as 8.74.

Take “(±)-5-{[5-(2-Adamantan-1-yl-ethyl)-2-[1-methyl-piperidin-2-yl])-1H-imidazole-4-carbonyl]-amino}-2-methyl-benzoic Acid [Example 141]”: the “Gastrin pKb” value is listed as 7.21.

Take “(3-{[5-(Adamantan-1-yloxymethyl)-2-cyclohet-4-enyl-1H-imidazole-4-carbonyl]-amino}-phenyl)-acetic Acid [Example 231]”: the “Gastrin pKb” value is 7.49.

On to `Cc1ccc(NC(=O)c2nc(C3CCCCC3)[nH]c2CCC23CC4CC(CC(C4)C2)C3)cc1C(=O)O` [Example 107], for which the “Gastrin pKb” value was 7.65.

The same assay, now with this note: isolated immature rat stomach, cumulative pentagastrin dose-response curves, read-out: Gastrin pKb (converted).
With `O=C(O)c1cccc(NC(=O)c2nc(C3CCCCCCC3)[nH]c2COC23CC4CC(CC(C4)C2)C3)c1` [Example 297, 3-{[5-(Adamantan-1-yloxymethyl)-2-cyclooctyl-1H-imidazole-4-carbonyl]-amino}-benzoic Acid], the Kb is 0.851 nM.

On to `Cc1ccc(NC(=O)c2nc(-c3ccccc3C)[nH]c2COC23CC4CC(CC(C4)C2)C3)cc1C(=O)O` [Example 305, 5-{[5-(Adamantan-1-yloxymethyl)-2-o-tolyl-1H-imidazole-4-carbonyl]-amino}-2-methyl-benzoic Acid], for which the Kb was 10 nM.

With `Cc1ccccc1-c1nc(CCc2cccc(C(=O)O)c2)c(CCC23CC4CC(CC(C4)C2)C3)n1C` [Example 278, 3-{2-[5-(2-Adamantan-1-yl-ethyl)-1-methyl-2-o-tolyl-1H-imidazol-4-yl]-ethyl}-benzoic Acid], the Kb is 64.6 nM.

`O=C(O)Cc1c(F)ccc(NC(=O)c2nc(C3CCCCC3)[nH]c2CCC23CC4CC(CC(C4)C2)C3)c1F` [Example 270, (3-{[5-(2-Adamantan-1-yl-ethyl)-2-cyclohexyl-1H-imidazole-4-carbonyl]-amino}-2,6-difluoro-phenyl)-acetic Acid]: the Kb is 195 nM.

In the case of `O=C(Nc1cccc(C(=O)N2CCC[C@H]2C(=O)O)c1)c1nc(C2CCCCC2)[nH]c1CCC12CC3CC(CC(C3)C1)C2` [Example 285, (S)-1-(3-{[5-(2-Adamantan-1-yl-ethyl)-2-cyclohexyl-1H-imidazole-4-carbonyl]-amino}-benzoyl)-pyrrolidine-2-carboxylic Acid], the Kb is 1000 nM.

Take `CC(C)(C(=O)O)c1cccc(NC(=O)c2nc(C3CCCCC3)[nH]c2CCC23CC4CC(CC(C4)C2)C3)c1` [Example 256, 2-(3-{[5-(2-Adamantan-1-yl-ethyl)-2-cyclohexyl-1H-imidazole-4-carbonyl]-amino}-phenyl)-2-methyl-propionic Acid]: the Kb was 708 nM.

For `CC1(c2nc(C(=O)Nc3cccc(C(=O)O)c3)c(COC34CC5CC(CC(C5)C3)C4)[nH]2)CCCCC1` [Example 303, 3-{[5-(Adamantan-1-yloxymethyl)-2-(1-methyl-cyclohexyl)-1H-imidazole-4-carbonyl]-amino}-benzoic Acid], the Kb is 11.7 nM.

For the compound `Cc1ccccc1-c1nc(CCC23CC4CC(CC(C4)C2)C3)c(C=Cc2cccc(C(=O)O)c2)n1C` [Example 276, 3-{2-[5-(2-Adamantan-1-yl-ethyl)-3-methyl-2-o-tolyl-3H-imidazol-4-yl]-vinyl}-benzoic Acid], the Kb was 1170 nM.

For the compound `CCOC(=O)Cn1c(-c2ccccc2C)nc(C(=O)Nc2cccc(C(=O)O)c2)c1CCC12CC3CC(CC(C3)C1)C2` [Example 250, 3-{[5-(2-Adamantan-1-yl-ethyl)-1-ethoxycarbonylmethyl-2-o-tolyl-1H-imidazole-4-carbonyl]-amino}-benzoic Acid], the Kb is 186 nM.

Turning to `Cc1ccc(NC(=O)c2nc(C34CCC(CC3)CC4)[nH]c2COC23CC4CC(CC(C4)C2)C3)cc1C(=O)O` [Example 300, 5-{[5-(Adamantan-1-yloxymethyl)-2-bicyclo[2.2.2]oct-1-yl-1H-imidazole-4-carbonyl]-amino}-2-methyl-benzoic Acid], the Kb was 3.02 nM.

For the compound `O=C(O)Cc1cccc(NC(=O)c2nc(C3CCCCCC3)[nH]c2COC23CC4CC(CC(C4)C2)C3)c1` [Example 229, (3-{[5-(Adamantan-1-yloxymethyl)-2-cycloheptyl-1H-imidazole-4-carbonyl]-amino}-phenyl)-acetic Acid], the Kb was 35.5 nM.

As for `Cc1cc(C)c(-c2nc(C(=O)Nc3ccc(F)c(C(=O)O)c3)c(CCC34CC5CC(CC(C5)C3)C4)[nH]2)c(C)c1` [Example 156, 5-{[5-(2-Adamantan-1-yl-ethyl)-2-(2,4,6-trimethyl-phenyl)-1H-imidazole-4-carbonyl]-amino}-2-fluoro-benzoic Acid], the Kb is 63.1 nM.

As to `CC(=O)NC(Cc1cccc(NC(=O)c2nc(C3CCCCC3)[nH]c2CCC23CC4CC(CC(C4)C2)C3)c1)C(=O)O` (racemic) [Example 265, (±)-2-Acetylamino-3-(3-{[5-(2-adamantan-1-yl-ethyl)-2-cyclohexyl-1H-imidazole-4-carbonyl]-amino}-phenyl)-propionic Acid], the Kb was 148 nM.

For the compound `CN1CCCCC1c1nc(C(=O)Nc2cccc(C(=O)O)c2)c(CCC23CC4CC(CC(C4)C2)C3)[nH]1` (racemic) [Example 139, (±)-3-{[5-(2-Adamantan-1-yl-ethyl)-2-(1-methyl-piperidin-2-yl)-1H-imidazole-4-carbonyl]-amino}-benzoic Acid], the Kb is 15.8 nM.

Take `Cc1ccc(NC(=O)c2nc(C3C4CCC3CC4)[nH]c2COC23CC4CC(CC(C4)C2)C3)cc1C(=O)O` (stereo not drawn) [Example 293, 5-{[5-(Adamantan-1-yloxymethyl)-2-bicyclo[2.2.1]hept-7-yl-1H-imidazole-4-carbonyl]-amino}-2-methyl-benzoic Acid]: the Kb was 3.02 nM.

As for `O=C(O)c1cc(NC(=O)c2nc(C3CCCCC3)[nH]c2COC23CC4CC(CC(C4)C2)C3)ccc1F` [Example 299, 5-{[5-(Adamantan-1-yloxymethyl)-2-cyclohexyl-1H-imidazole-4-carbonyl]-amino}-2-fluoro-benzoic Acid], the Kb is 20.4 nM.

In the case of `CC1(C)C2CC[C@@]1(C)C(c1nc(C(=O)Nc3cccc(C(=O)O)c3)c(CCC34CC5CC(CC(C5)C3)C4)[nH]1)C2` (mixture of isomers) [Example 206, 3-{[5-(2-Adamantan-1-yl-ethyl)-2-[(1S,2RS)-1,7,7-trimethyl-bicyclo[2.2.1]hept-2-yl]-1H-imidazole-4-carbonyl]-amino}-benzoic Acid], the Kb was 263 nM.

Take `O=C(O)CCc1ccc(NC(=O)c2nc(C3CCCCC3)[nH]c2CCC23CC4CC(CC(C4)C2)C3)cc1` [Example 283, 3-(4-{[5-(2-Adamantan-1-yl-ethyl)-2-cyclohexyl-1H-imidazole-4-carbonyl]-amino}-phenyl)-propionic Acid]: the Kb was 1150 nM.

Regarding `Cc1ccccc1-c1nc(CNc2cccc(C(=O)O)c2)c(CCC23CC4CC(CC(C4)C2)C3)n1C` [Example 279, 3-{[5-(2-Adamantan-1-yl-ethyl)-1-methyl-2-o-tolyl-1H-imidazol-4-ylmethyl]-amino}-benzoic Acid], the Kb is 145 nM.

As to `Cc1ccc(NC(=O)c2nc(C34C=CC(CC3)CC4)[nH]c2COC23CC4CC(CC(C4)C2)C3)cc1C(=O)O` [Example 301, 5-{[5-(Adamantan-1-yloxymethyl)-2-bicyclo[2.2.2]oct-2-en-1-yl-1H-imidazole-4-carbonyl]-amino}-2-methyl-benzoic Acid], the Kb is 2.63 nM.

For the compound `Cc1cc(C)c(-c2nc(C(=O)Nc3cccc(C(=O)O)c3)c(COC34CC5CC(CC(C5)C3)C4)[nH]2)c(C)c1` [Example 226, 3-{[5-(Adamantan-1-yloxymethyl)-2-(2,4,6-trimethyl-phenyl)-1H-imidazole-4-carbonyl]-amino}-benzoic Acid], the Kb was 13.5 nM.

The values are drawn from US6479531B1, “Gastrin and cholecystokinin receptor ligands” (James Black Foundation Limited, priority 1998, dated 2002).
